# Reference: patent US20250115569A1, “SULFONAMIDE COMPOUNDS FOR THE TREATMENT OF NEUROLOGICAL CONDITIONS” (LARIO THERAPEUTICS LIMITED, priority 2021, published 2025)
# Test system: Human Cav2.3 channel
# Assay: Human Cav2.3 channel calcium-influx assay
# Assay type: cell-based
# Conditions: Fluo8 fluorescence, HEK-293 T-Rex/Kir2.1/Cav2.3e cells, without pluronic acid
# Method: HEK-293 T-Rex cells were transfected with pcDNA3.1-Kir2.1 to generate a stable cell line. After antibiotic selection, the obtained stable pools were analysed using FLIPR^TETRA (membrane potential assay), and a limiting dilution was performed and a HEK-293 T-Rex/Kir2.1 clone was selected. The clone was transfected with pcDNA3.1-Cav2.3e and pBud-Cav-β4-α2δ1 to generate a stable cell line where the Cav2.3e expression is inducible. After antibiotic selection, functional clone pool analysis and two successive limiting dilutions, the final clone underwent a qPCR analysis and a biophysical and pharmacological validation using patch-clamp.
# A compound plate, containing 10 test compounds in eight-points dose response with n=4, was prepared. Test compounds dose response curves were prepared in automated fashion in 100% DMSO at CyBio Felix and starting from a stock solution in 100% DMSO; a defined volume was serially moved into destination wells pre-filled with the desired DMSO volume; stock solution concentration volumes were dependent on the final compounds concentrations to be tested and the final DMSO content used in the assay. For the assay test compounds dose response curves ranged from 30 μM and half log dilution with 0.3% final DMSO. In order to obtain the 8-points dose response curve all the concentrations were created by starting from a 10 mM DMSO stock solution and then moving 9.5 μL into a destination well pre-filled with 20.5 μL of 100% DMSO and repeating this step seven times. This initial step was done into 96 MTP plates, 10 compounds/plate. One 384 MTP was then reformatted to contain all the 10 compounds at 8 concentrations, quadruplicate data points. This so obtained 384 MTP compound plate served as source plate in a “mother to child” process with a CyBi®-Well dispenser in which 0.7 μL of compounds were moved into a destination plate pre-filled with 57.6 μL of Tyrode's buffer 0 mM K+, thus obtaining 4× concentrated compounds solution. In columns 1-2 and 23-24 the control wells were added. Both “source” compound plate and “destination” compound plate were barcoded and a relationship between the two plates was thus generated.
# The day before the experiment, cells were detached by gentle wash with DPBS, followed by 5 min incubation at 37° C. with Trypsin solution. Detached cells were diluted with OptiMEM+Doxycycline at 0.2 μg/mL, counted and plated in Poly-D-Lysine coated black/clear bottom (15.000 c/well in 20 μl/well) by the use of a MATRIX WellMate dispenser. Plates were placed into a humidified incubator at 37° C. with 5% CO2 until the experimental day. 24 h after seeding 10 μL/well of 1.5× Fluo8 NW dye solution prepared in Tyrode's buffer 0 mM K* were added on top of the seeding medium. Cell plates were incubated for 40-60 min at RT in the dark. We then Injected off-line 10 μL/well of test compounds and controls 4× concentrated in Tyrode's Buffer 0 mM K+ with the CyBi®-Well instrument. Cell plates were incubated 3 minutes at RT. Finally, we injected 20 μL/well of 3× concentrated activator solution (K20-Na130-Ca2 buffer: 20 mM KCl, 130 mM NaCl, 2 mM CaCl2, 10 mM HEPES, 10 mM Glucose, final concentrations, prepared starting from “K0-Na150-Ca2” and “K150-Na0-Ca2” buffers) at FDSS7000EX instrument and read emitted fluorescence for 130 seconds.
# Data analysis was performed with Genedata Screener® software and reported compounds activity as % effect in relation to the normalization standards. The Kinetic Response Value (KRV) is calculated as follows:
# KRV=Maximal fluorescence recorded from second 5 to second 130 minus baseline fluorescence, computed as average from second 1 to second 2, of the kinetic trace. The KRV was normalized versus Neutral Controls and Inhibitor Controls in order to obtain the Activity[%] for each well. […] Therefore, the compound activity values were scaled (based on the two references) to a common range (two-point normalization). […]
row,SMILES,Cav2.3 (pIC50)
1,"CN([C@H](c1ccc(Cl)cc1)C(F)(F)F)S(=O)(=O)c1ccc2nncn2n1 [Example 205, (R)—N-(1-(4-chlorophenyl)-2,2,2-trifluoroethyl)-N-methyl-[1,2,4]triazolo[4,3-b]pyridazine-6-sulfonamide]",5.89
2,"CCN([C@H](c1ccc(F)c(F)c1)C(F)(F)F)S(=O)(=O)c1cncc(C#N)c1 [Example 250, (R)-5-cyano-N-(1-(3,4-difluorophenyl)-2,2,2-trifluoroethyl)-N-ethylpyridine-3-sulfonamide]",7.14
3,"CCN(C(c1ccc(F)cc1)C(F)(F)F)S(=O)(=O)c1ccc(N2CCOCC2)s1 (stereo not drawn) [Example 89, N-ethyl-5-morpholino-N-(2,2,2-trifluoro-1-(4-fluorophenyl)ethyl)thiophene-2-sulfonamide]",5.68
4,"CCN(C(c1ccc(OC)cc1)C(F)(F)F)S(=O)(=O)C1CCOCC1 (stereo not drawn) [Example 124, N-ethyl-N-(2,2,2-trifluoro-1-(4-methoxyphenyl)ethyl)tetrahydro-2H-pyran-4-sulfonamide]",6.11
5,"CN([C@H](c1ccc(C(F)(F)F)cc1)C(F)(F)F)S(=O)(=O)c1cnc2ncccn12 [Example 214, (R)—N-methyl-N-(2,2,2-trifluoro-1-(4-(trifluoromethyl)phenyl)ethyl)imidazo[1,2-a]pyrimidine-3-sulfonamide]",6.95
6,"CCN([C@@H](c1ccc(F)cc1)C(F)(F)F)S(=O)(=O)c1ccc(N2CCOCC2)s1 [Example 91, (S)—N-ethyl-5-morpholino-N-(2,2,2-trifluoro-1-(4-fluorophenyl)ethyl)thiophene-2-sulfonamide]",5.37
7,"CCN(C(c1ccc(F)cc1)C(F)(F)F)S(=O)(=O)c1ccc2c(c1)COC2 (stereo not drawn) [Example 36, N-ethyl-N-(2,2,2-trifluoro-1-(4-fluorophenyl)ethyl)-1,3-dihydroisobenzofuran-5-sulfonamide]",6.58
8,"CCN(C(c1ccc(F)cc1)C(F)(F)F)S(=O)(=O)c1ccn(C)c(=O)c1 (stereo not drawn) [Example 103, N-ethyl-1-methyl-2-oxo-N-(2,2,2-trifluoro-1-(4-fluorophenyl)ethyl)-1,2-dihydropyridine-4-sulfonamide]",6.50
9,"CCN(C(c1cccc(F)c1)C(F)(F)F)S(=O)(=O)c1cncc(C#N)c1 (stereo not drawn) [Example 110, 5-Cyano-N-ethyl-N-(2,2,2-trifluoro-1-(3-fluorophenyl)ethyl)pyridine-3-sulfonamide]",7.11
10,"CCN(C(c1ccc(F)cc1)C(F)(F)F)S(=O)(=O)c1ccc(F)s1 (stereo not drawn) [Example 14, N-ethyl-5-fluoro-N-(2,2,2-trifluoro-1-(4-fluorophenyl)ethyl)thiophene-2-sulfonamide]",5.64
11,"CN(C(c1ccc(C(F)(F)F)c(F)c1)C(F)(F)F)S(=O)(=O)c1cncc(C#N)c1 (stereo not drawn) [Example 255, 5-cyano-N-methyl-N-(2,2,2-trifluoro-1-(3-fluoro-4-(trifluoromethyl)phenyl)ethyl)pyridine-3-sulfonamide]",6.96
12,"CN([C@H](c1ccc(C(F)(F)F)cc1)C(F)(F)F)S(=O)(=O)c1ccn2ncnc2c1 [Example 215, (R)—N-methyl-N-(2,2,2-trifluoro-1-(4-(trifluoromethyl)phenyl)ethyl)-[1,2,4]triazolo[1,5-a]pyridine-7-sulfonamide]",7.15
13,"Cc1ccc([C@@H](N(C)S(=O)(=O)c2cncnc2)C(F)(F)F)cc1 [Example 226, (R)—N-methyl-N-(2,2,2-trifluoro-1-(p-tolyl)ethyl)pyrimidine-5-sulfonamide]",6.79
14,"CCN(C(c1ccccc1OC)C(F)(F)F)S(=O)(=O)c1cncc(C#N)c1 (stereo not drawn) [Example 107, 5-Cyano-N-ethyl-N-(2,2,2-trifluoro-1-(2-methoxyphenyl)ethyl)pyridine-3-sulfonamide]",5.08
15,"CN([C@H](c1ccc(C(F)(F)F)cc1)C(F)(F)F)S(=O)(=O)c1cnc2cccnn12 [Example 211, (R)—N-methyl-N-(2,2,2-trifluoro-1-(4-(trifluoromethyl)phenyl)ethyl)imidazo[1,2-b]pyridazine-3-sulfonamide]",7.17
16,"Cc1ccc(S(=O)(=O)N(C)[C@H](c2ccc(C(F)(F)F)cc2)C(F)(F)F)cn1 [Example 266, (R)—N,6-dimethyl-N-(2,2,2-trifluoro-1-(4-(trifluoromethyl)phenyl)ethyl)pyridine-3-sulfonamide]",6.54
17,"CCN([C@@H](c1ccc(C)cc1)C(F)(F)F)S(=O)(=O)c1cncc(C#N)c1 [Example 105, (S)-5-Cyano-N-ethyl-N-(2,2,2-trifluoro-1-(p-tolyl)ethyl)pyridine-3-sulfonamide]",5.38
18,"COc1cc(S(=O)(=O)N(C)[C@H](c2ccc(Cl)cc2)C(F)(F)F)cnn1 [Example 229, (R)—N-(1-(4-chlorophenyl)-2,2,2-trifluoroethyl)-6-methoxy-N-methylpyridazine-4-sulfonamide]",6.93
19,"CN(C(c1ccc(F)cc1)C(F)F)S(=O)(=O)c1ccc(Cl)s1 (stereo not drawn) [Example 23, 5-chloro-N-(2,2-difluoro-1-(4-fluorophenyl)ethyl)-N-methylthiophene-2-sulfonamide]",5.15
20,"CCN(C(c1cccc(C)c1)C(F)(F)F)S(=O)(=O)c1cncc(C#N)c1 (stereo not drawn) [Example 113, 5-Cyano-N-ethyl-N-(2,2,2-trifluoro-1-(m-tolyl)ethyl)pyridine-3-sulfonamide]",6.96
21,"CCN([C@H](c1ccc(F)cc1)C(F)(F)F)S(=O)(=O)c1cnc2cc[nH]c2c1 [Example 149, (R)—N-ethyl-N-(2,2,2-trifluoro-1-(4-fluorophenyl)ethyl)-1H-pyrrolo[3,2-b]pyridine-6-sulfonamide]",6.61
22,"CCN(C(c1ccc(F)cc1)C(F)(F)F)S(=O)(=O)c1ccc(C#N)s1 (stereo not drawn) [Example 3, 5-cyano-N-ethyl-N-(2,2,2-trifluoro-1-(4-fluorophenyl)ethyl)thiophene-2-sulfonamide]",6.31
23,"CCN([C@@H](c1ccc(F)cc1)C(F)(F)F)S(=O)(=O)C1CCOCC1 [Example 62, (S)—N-ethyl-N-(2,2,2-trifluoro-1-(4-fluorophenyl)ethyl)tetrahydro-2H-pyran-4-sulfonamide]",5.20
24,"CCN([C@H](c1cccc(C)c1)C(F)(F)F)S(=O)(=O)c1cncc(C#N)c1 [Example 114, (R)-5-cyano-N-ethyl-N-(2,2,2-trifluoro-1-(m-tolyl)ethyl)pyridine-3-sulfonamide]",6.87
25,"CCN([C@H](c1cccc(OC)c1)C(F)(F)F)S(=O)(=O)c1cncc(C#N)c1 [Example 72, (R)-5-Cyano-N-ethyl-N-(2,2,2-trifluoro-1-(3-methoxyphenyl)ethyl)pyridine-3-sulfonamide]",6.20
26,"CN([C@H](c1ccc(C(F)(F)F)cc1)C(F)(F)F)S(=O)(=O)c1ccn2ccnc2c1 [Example 236, (R)—N-methyl-N-(2,2,2-trifluoro-1-(4-(trifluoromethyl)phenyl)ethyl)imidazo[1,2-a]pyridine-7-sulfonamide]",7.33
27,"CCN(C(c1ccc(F)cc1)C(F)(F)F)S(=O)(=O)c1ccc(C2CCOCC2)s1 (stereo not drawn) [Example 88, N-ethyl-5-(tetrahydro-2H-pyran-4-yl)-N-(2,2,2-trifluoro-1-(4-fluorophenyl)ethyl)thiophene-2-sulfonamide]",5.60
